The assay relates to diet-induced obesity (DIO) mice. The experiment in a line: Body weight, body composition and indirect calorimetry in DIO mice. Format: in vivo, mouse. The protocol:
C57BL/6J male mice were obtained from Jackson laboratory (Bar Harbor, ME) and maintained on a 12 h light (6:00 AM to 6:00 PM)—12 h dark (6:00 PM to 6:00 AM) cycle at an ambient temperature of 22±1° C. All animals had access to diet and water ad libitum. All procedures involving animals were approved by the Institutional Animal Care and Use Committee of the University of Oklahoma Health Science Center. All experiments were performed with age-matched male mice. The mice were fed a high-fat diet (HFD) (60% kcal fat, Bio-Serv, NJ, USA) starting from the age of 6 weeks until study end. […] Food intake was determined manually by measuring the amount of input food subtracting the amount of the food remaining in the food hopper and the crumbs on the bedding of the cage each day for three days during the 4th week of the treatment. Packed cell volume (PCV) was measured with blood drawn from tail on a LW Scientific E8 centrifuge (LW Scientific, Lawrenceville, Georgia, USA) microhematocrit centrifuge at the end of study. For all other measurements, the blood was drawn at the time of euthanization.
Body lean and fat composition was determined by EchoMRI test.
The mice were individually housed in chambers of a Promethion Core Monitoring system (Sable Systems, Las Vegas, NV, USA). After a 1-day acclimation period, their oxygen consumption and carbon dioxide production were measured for the next three consecutive days. The respiratory exchange ratio and energy expenditure were calculated using standard equations

SMILES strings stand for the structures.

For the compound `Cc1c(C)n(Cc2ccc(-c3ccccc3C(=O)O)cc2)c2ccc(C(=O)NCc3cccc(O)c3)cc12` [WO95E, 4′-((5-((3-hydroxybenzyl)carbamoyl)-2,3-dimethyl-1H-indol-1-yl)methyl)-[1,1′-biphenyl]-2-carboxylic acid], the body weight entry (DIO mice on HFD, 15 mg/kg i.p. daily 4 weeks) was “reduced body weight”. For the same compound, where the note is “DIO mice, 15 mg/kg i.p. daily”, the “fat mass (EchoMRI)” value is given as “significant decrease” and the “lean mass (EchoMRI)” value was “no noticeable change”. In addition, the daily food intake result (DIO mice, 4th week of treatment, vs vehicle) is reported as “same amount of daily food intake”. The “average oxygen consumption (VO2)” value (DIO mice, indirect calorimetry after 4-week treatment) is listed as “higher”. The mean energy expenditure entry (DIO mice, indirect calorimetry, vs vehicle) was “significantly heightened”. In addition, under “DIO mice, indirect calorimetry, p value 0.08 for daytime”, the “average carbon dioxide production (VCO2)” value was “increased”. For the same compound, the “respiratory exchange ratio (RER)” value (DIO mice, vs vehicle, data not shown) is “similar”. Moreover, the “overall activity (distance)” value (DIO mice, difference statistically insignificant) was “upward trend”.
